This is an account of results in ChEMBL document CHEMBL1201862, “PubChem BioAssay data set” (2004).

Among the test systems are CCRF-CEM; COLO 205; DU-145; HOP-92; K562; MDA-MB-231; MOLT-4; NCI-H23; OVCAR-3; OVCAR-4; RPMI-8226; SF-268; SK-MEL-28; SK-MEL-2; SK-OV-3; SN12C; SW-620; TK-10; UO-31; NCI-H226.
Test in all cases: inhibition of tumour cell growth, NCI panel, 48 h

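Five compound concentrations were applied to cells in 96-well plates for 48 hours; endpoints were derived by simple linear interpolation of the resulting dose-response curve. GI50: concentration for 50% inhibition of growth.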 Active and inactive are the calls of the source. Rule as the data show it: active = GI50 up to about 1.1 µM and inactive = higher.

Regarding `O=C1c2ccccc2C2(c3ccc(Cl)cc3)NCc3ccccc3CN12` (stereo not given), the GI50 is 25.9 µM (inactive) with CCRF-CEM; 15.1 µM (inactive) with COLO 205; 21.3 µM (inactive) with DU-145; 19.7 µM (inactive) in the test with HOP-92; 32.9 µM (inactive) in the test with K562; 57.4 µM (inactive) in the test with MDA-MB-231. The GI50 in the test with MOLT-4 was 24.8 µM (inactive); in the test on NCI-H23 it was 17.7 µM (inactive); in the test on OVCAR-3 it was 13.4 µM (inactive); in the test on OVCAR-4 it was 23.7 µM (inactive); in the test with RPMI-8226 it was 21.8 µM (inactive); in the test on SF-268, 35.1 µM (inactive). For the same molecule, the GI50 with SK-MEL-28 was 25.2 µM (inactive); in the test with SK-MEL-2 it was 13.7 µM (inactive); in the test on SK-OV-3, 31.2 µM (inactive); in the test with SN12C, 43.4 µM (inactive); in the test on SW-620 it was 37.2 µM (inactive); in the test on TK-10, 31.3 µM (inactive). In addition, the GI50 with UO-31 was 22.5 µM (inactive).

Consider `CO/N=C1/C(n2[nH]c(=O)n(-c3ccccc3)c2=O)C2C=CC1n1c(=O)n(-c3ccccc3)c(=O)n12` (stereo not given), for which the GI50 in the test on CCRF-CEM, in the test with COLO 205, in the test with DU-145, in the test with K562, in the test with MDA-MB-231 and in the test with MOLT-4 was > 100 µM (inactive) each time. In addition, the GI50 in the test with NCI-H226, in the test with NCI-H23, in the test on OVCAR-3, in the test on OVCAR-4, in the test on RPMI-8226 and in the test on SF-268 was > 100 µM (inactive) throughout. Besides, the GI50 with SK-MEL-28, in the test on SK-MEL-2, in the test on SK-OV-3, in the test on SN12C, with SW-620 and in the test with TK-10 was > 100 µM (inactive) each time. Moreover, the GI50 with UO-31 was > 100 µM (inactive).

As for `CCNCC(O)c1ccc(N)c([N+](=O)[O-])c1` (stereo not given), the GI50 in the test with CCRF-CEM, in the test on COLO 205, with DU-145, in the test on K562, in the test on MDA-MB-231 and with MOLT-4 was > 100 µM (inactive) throughout. The GI50 was > 100 µM (inactive) in the test with NCI-H226; > 100 µM (inactive) with NCI-H23; > 100 µM (inactive) with OVCAR-3; 21.4 µM (inactive) in the test with OVCAR-4; > 100 µM (inactive) in the test on RPMI-8226; > 100 µM (inactive) in the test on SF-268. For the same molecule, the GI50 with SK-MEL-28, in the test on SK-MEL-2, in the test on SK-OV-3, with SN12C, in the test with SW-620 and in the test on TK-10 was > 100 µM (inactive) each time. Also, the GI50 with UO-31 was > 100 µM (inactive).

Turning to `Cc1c(Cl)cccc1/N=N/C(=O)NNc1cccc(Cl)c1C`, the GI50 was 16.9 µM (inactive) in the test with CCRF-CEM; 14.4 µM (inactive) with DU-145; 16.8 µM (inactive) in the test on K562; 17.8 µM (inactive) in the test on MDA-MB-231; 13.3 µM (inactive) in the test on MOLT-4; 15.8 µM (inactive) with NCI-H226. The GI50 was 16.7 µM (inactive) with NCI-H23; 17.6 µM (inactive) in the test on OVCAR-3; 12 µM (inactive) with OVCAR-4; 25.5 µM (inactive) with RPMI-8226; 16.9 µM (inactive) with SF-268; 16.6 µM (inactive) in the test with SK-MEL-28. The GI50 was 13.6 µM (inactive) in the test on SK-MEL-2; 17.3 µM (inactive) in the test with SN12C; 17.1 µM (inactive) in the test on SW-620; 15.8 µM (inactive) with TK-10; 12.5 µM (inactive) with UO-31.

Regarding `N=C(N)NC(CC(=O)O)c1ccccc1` (stereo not given), the GI50 with COLO 205, with DU-145, in the test on HOP-92, in the test on K562, in the test on MDA-MB-231 and in the test with NCI-H23 was > 100 µM (inactive) each time. In addition, the GI50 in the test on OVCAR-3, in the test on OVCAR-4, in the test with RPMI-8226, with SF-268, with SK-MEL-28 and in the test on SK-MEL-2 was > 100 µM (inactive) each time. For the same molecule, the GI50 in the test with SK-OV-3, in the test with SN12C, in the test with SW-620, in the test with TK-10 and in the test with UO-31 was > 100 µM (inactive) each time.

Consider `COc1ncc(/C=C2\OC(=O)c3ccccc32)c(OC)n1`, for which the GI50 in the test with CCRF-CEM was 39.1 µM (inactive); with COLO 205, > 100 µM (inactive); in the test on DU-145 it was 88.9 µM (inactive); in the test with HOP-92, 47.5 µM (inactive); in the test on K562 it was 29.2 µM (inactive); in the test with MDA-MB-231, > 100 µM (inactive). Also, the GI50 in the test with MOLT-4 is 41 µM (inactive); with NCI-H226 it was 66.1 µM (inactive); with NCI-H23 it was > 100 µM (inactive); in the test on OVCAR-3 it was 24.9 µM (inactive); in the test with RPMI-8226, 5.94 µM (inactive); with SF-268 it was 32.6 µM (inactive). For the same molecule, the GI50 in the test with SK-MEL-28 was 56.1 µM (inactive); in the test on SN12C it was > 100 µM (inactive); in the test with SW-620, > 100 µM (inactive); with TK-10, 16.2 µM (inactive); in the test with UO-31, 12.9 µM (inactive).

Take `C/C=C(/C)c1cnc(CC(C)C)c(=O)[nH]1`: the GI50 in the test on CCRF-CEM, in the test with COLO 205, in the test with DU-145, with HOP-92, in the test on K562 and in the test with MDA-MB-231 was > 100 µM (inactive) each time. Besides, the GI50 with MOLT-4 was > 100 µM (inactive); in the test with NCI-H23, > 100 µM (inactive); in the test with OVCAR-3, > 100 µM (inactive); in the test on OVCAR-4, > 100 µM (inactive); in the test with RPMI-8226 it was 0.35 µM (active); with SF-268 it was > 100 µM (inactive). The GI50 with SK-MEL-28, in the test on SK-MEL-2, in the test on SK-OV-3, in the test with SN12C, with SW-620 and in the test with TK-10 was > 100 µM (inactive) each time. Also, the GI50 with UO-31 was > 100 µM (inactive).

For `O=C(c1cscc1CCc1ccccc1)c1cscc1CCc1ccccc1`, the GI50 in the test with CCRF-CEM, with COLO 205, with DU-145, in the test with K562, with MDA-MB-231 and with MOLT-4 was > 100 µM (inactive) throughout. The GI50 with NCI-H226, in the test with NCI-H23, in the test on OVCAR-4, in the test with RPMI-8226, with SF-268 and in the test with SK-MEL-28 was > 100 µM (inactive) throughout. Moreover, the GI50 with SK-MEL-2, in the test on SK-OV-3, in the test with SN12C, in the test on SW-620, in the test with TK-10 and in the test with UO-31 was > 100 µM (inactive) each time.
